# Test results: patent publication US20060276416A1, “Methods and compositions for treating flushing and drug induced weight gain” (Sirtris Pharmaceuticals, Inc., priority 2005, published 2006)
# “Also recorded” adds a separate entry of the source.
# How the values were obtained:
# phosphorylation of ACC = assay: ACC phosphorylation Western in 3T3-L1 adipocytes; format: cell-based; details: day 6 and day 10 of differentiation
# Protocol: ACC was also phosphorylated when the cells were incubated in serum free media overnight before harvesting (lanes marked “SF”). The reason for the extra band in the SIRT1 blot at day 6 is unknown, but it may be a modified form of SIRT1. Tubulin served as a loading control.
# [1] = test system: AMPK at Thr172 and ACC at serine 79; assay: AMPK and ACC phosphorylation Western in CHO-HIR cells; format: cell-based
# Protocol: Cells were harvested after 30 minutes and lysates were immediately boiled in SDS and subjected to Western analysis with site-specific antibodies. Phosphorylation of AMPK at Thr172 indicates activation of the kinase. Active AMPK phosphorylates and inactivates ACC at serine 79.
# C. elegans = C. elegans fat accumulation, Nile Red staining; format: in vivo
# Protocol: Fat accumulation was visualized with Nile Red staining, as described further below and in Ashrafi K, et al. Nature 421:268-27 (2003).
# Synchronized starved L1 worms were grown in the presence of Nile Red. Strains were grown on NGM plates at 25° C. for approximately 48 hours until the young adult stage was reached. 20-30 young adult worms were then washed 2× with M9 buffer and transferred to new NGM/Nile red experimental plates that contained either OP50 or HTT5 E. coli carrying the L4440 RNAi control vector.
# Young adults were transferred to plates containing the appropriate vector, Nile Red stain and drug then maintained at 25° C.
# Nile Red: Nile Red Powder (Sigma #N-3013) was dissolved in acetone at 500 μg/ml, diluted in 1× Phosphate Buffered Saline (PBS) including appropriate drug and applied to surface of Nematode Growth Media (NGM) plates previously seeded with OP50 or RNAi bacteria, at a final concentration of 0.05 μg/ml. Fat content was monitored and recorded by fluorescence microscopy.
# recombinant human SIRT1 = biological target: T1, recombinant human SIRT1 (Homo sapiens, UniProt Q96EB6); assay: SIRT1 fluorescent deacetylation assay (p53-382 acetylated peptide); format: biochemical
# T1 sequence (Q96EB6 1-747): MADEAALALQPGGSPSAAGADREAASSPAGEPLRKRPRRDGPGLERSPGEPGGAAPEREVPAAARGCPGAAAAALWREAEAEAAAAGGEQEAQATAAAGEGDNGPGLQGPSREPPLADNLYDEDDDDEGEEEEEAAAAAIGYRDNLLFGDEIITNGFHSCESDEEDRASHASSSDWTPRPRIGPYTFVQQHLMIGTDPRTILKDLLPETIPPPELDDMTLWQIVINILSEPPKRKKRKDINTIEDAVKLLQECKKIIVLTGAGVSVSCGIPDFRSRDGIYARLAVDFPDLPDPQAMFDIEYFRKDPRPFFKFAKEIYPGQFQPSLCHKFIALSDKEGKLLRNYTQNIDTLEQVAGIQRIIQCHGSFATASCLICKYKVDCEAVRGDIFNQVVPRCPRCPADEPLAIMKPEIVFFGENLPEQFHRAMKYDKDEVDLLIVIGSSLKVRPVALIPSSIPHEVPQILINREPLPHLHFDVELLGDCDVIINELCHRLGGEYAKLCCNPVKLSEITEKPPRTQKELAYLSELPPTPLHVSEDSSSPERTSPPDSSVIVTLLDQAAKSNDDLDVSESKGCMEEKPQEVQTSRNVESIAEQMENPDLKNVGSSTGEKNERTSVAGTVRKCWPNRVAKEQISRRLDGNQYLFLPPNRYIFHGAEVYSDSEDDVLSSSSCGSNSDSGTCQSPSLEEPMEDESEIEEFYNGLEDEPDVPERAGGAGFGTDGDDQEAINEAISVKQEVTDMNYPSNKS
# Protocol: To identify compounds that modulate SIRT1 activity, a number of small molecule libraries were screened using a fluorescent deacetylation assay in 96-well plates^26. The substrate used in the assay was a fluorogenic peptide based on the sequence encompassing the p53-K382 acetylation site, a known target of SIRT1 in vivo^20,21,27. […] The small molecule libraries included analogues of nicotinamide, ε-acetyl lysine, NAD^+, nucleotides, nucleotide analogues and purinergic ligands.
# From 0.1 to 1 μg of SIRT1 and 1.5 μg of Sir2 were used per deacetylation assay (in 50 μl total reaction) as previously described^26. SIRT1 assays and certain of those for Sir2 employed the p53-382 acetylated substrate (‘Fluor de Lys-SIRT1’, BIOMOL) rather than FdL.
# Themed compound libraries (BIOMOL) were used for primary and secondary screening. Most polyphenol compounds were dissolved at 10 mM in dimethylsulfoxide (DMSO) on the day of the assay. For water soluble compounds and negative controls, 1% v/v DMSO was added to the assay. In vitro fluorescence assay results were read in white ½-volume 96-well microplates (Corning Costar 3693) with a CytoFluor™ II fluorescence plate reader (PerSeptive Biosystems, Ex. 360 nm, Em. 460 nm, gain=85). […] Unless otherwise indicated all initial rate measurements were means of three or more replicates, obtained with single incubation times, at which point 5% or less of the substrate initially present had been deacetylated. Calculation of net fluorescence increases included subtraction of a blank value, which in the case of Sir2 was obtained by omitting the enzyme from the reaction and in the case of SIRT1 by adding an inhibitor (200 μM suramin or 1 mM nicotinamide) to the reaction prior to the acetylated substrate. A number of the polyphenols partially quenched the fluorescence produced in the assay and correction factors were obtained by determining the fluorescence increase due to a 3 μM spike of an FdL deacetylated standard (BIOMOL, catalog number KI-142). All error bars represent the standard error of the mean.
# All SIRT1 rate measurements used in the calculation of “Ratio to Control Rate” were obtained with 25 μM NAD^+ and 25 μM p53-382 acetylated peptide substrate were performed as described above and in K. T. Howitz et al. Nature (2003) 425: 191. All ratio data were calculated from experiments in which the total deacetylation in the control reaction was 0.25-1.25 μM peptide or 1-5% of the initial concentration of acetylated peptide.
# NIH3T3 cells = assay: Adipocyte differentiation and fat content, Oil Red O; format: cell-based; details: 10 days of differentiation
# Protocol: (§1) After 10 days of differentiation, cells were fixed and stained with Oil red O. Oil red 0 was extracted from stained cells and quantified by measuring absorbance at 520 nm. B. Oil red 0 quantitation is shown as fold change relative to the 3T3-L1 sample treated with 0 μM resvratrol.
# (§2) After 10 days of differentiation, fat content was assessed by Oil Red O staining, as described below. […] The results in NIH3T3 cells confirm the results obtained in C. elegans.
# (§3) 3T3-L1 and NIH3T3 cells were maintained in DMEM plus 10% calf serum. Adipocyte differentiation of 3T3-L1 cells was performed as described previously (MacDougald, O. A. and Lane, M. D. (1995). Transcriptional regulation of gene expression during adipocyte differentiation. Annu. Rev. Biochem. 64, 345-373). NIH3T3 cells were induced to form adipocytes under the same conditions as 3T3-L1 cells, but with 6 days of treatment with insulin, dexamethasone, and isobutylmethylxanthine in 10% fetal calf serum after cells reach confluence. The staining of adipocytes with Oil Red-O and quantitation was performed as described previously (Ramirez-Zacarias J L, Castro-Munozledo F, Kuri-Harcuch W. Histochemistry. 1992 97(6): 493-7).
# 3T3-L1 cells = assay: as above; format: cell-based
# Protocol: as §1, §2, §3
# [2] = test system: AMPK and ACC phosphorylation; assay: AMPK and ACC phosphorylation in mouse embryonic fibroblasts without LKB1; format: cell-based; details: LKB1 -/- cells; 50, 100, 200 μM
# Protocol: Blots were stained for the presence of P-ACC, P-AMPK, AMPK, or tubulin as indicated on the left.
# Similar results were also observed in mouse embryonic fibroblast (MEFs). […] Cells in the left panel were incubated overnight without serum before harvesting; the cells on the right were not incubated under serum free conditions. […] Tubulin served as a loading control.
compound,measurement,setting,value
"Oc1ccc(/C=C/c2cc(O)cc(O)c2)cc1 [Resveratrol, 3,5,4′-Trihydroxy-trans-stilbene]",Phosphorylation of ACC,phosphorylation of ACC,stimulated the phosphorylation of ACC
same,Activation of AMPK,"[1]; 100 nM to 50 μM resveratrol, increasing concentrations",activation of AMPK
same,Phosphorylation of AMPK and ACC,"[1]; AICAR 500 μM, resveratrol 12.5, 25 or 50 μM, 30 minutes",stimulates phosphorylation of AMPK and ACC
same,Fat staining,"C. elegans; 100 μM, 48 hours, control 2.5% v/v DMSO",Significant reduction
same,Fat mobilization,C. elegans; DAF-16 mutant worms (mgDf47),stimulates fat mobilization
same,Fat mobilization,C. elegans; RNA inactivation of TOC1.8 (AMPK) or F41E7.3 (COT),blocks resveratrol-stimulated fat mobilization
same,Fat mobilization,C. elegans; Sir2.1 RNAi,did not show resveratrol induced fat mobilization
same,Reduction of fat content,"C. elegans; normal worms, RNAi vector alone",75%
same,Fat accumulation (in words),"C. elegans; wild-type N2, 10 μM or 50 μM",marked decrease
same,Reduction of fat accumulation,"C. elegans; wild-type N2, 100 μM, overnight",90%
same,Concentration at which the activating effect was essentially saturated,"recombinant human SIRT1; 25 μM NAD+, 25 μM p53-382 acetylated peptide",100 λM
same,Vmax,"recombinant human SIRT1; 1 mM p53-382 acetylated peptide, variable NAD+, +100 μM resveratrol (control 1863)",1749 AFU/min
same,Vmax,"recombinant human SIRT1; 3 mM NAD+, variable p53-382 acetylated peptide, +100 μM resveratrol (control 1107)",926 AFU/min
same,Concentrations that decreased the quantity of cellular fat,NIH3T3 cells,≥ 25 µM
same,Concentrations that decreased the quantity of cellular fat,3T3-L1 cells; 10 days of differentiation,≥ 25 µM
same,PPARγ expression,3T3-L1 cells; resveratrol-treated cells,did not show an increase; also recorded: marked decrease
same,AMPK and ACC phosphorylation,[2],upregulation of both AMPK and ACC phosphorylation
